Source: ChEMBL document CHEMBL5291721, “A preclinical secondary pharmacology resource illuminates target-adverse drug reaction associations of marketed drugs” (Nat Commun, 2023)

What was measured:
[1] = target: Neurotensin receptor type 1 (Homo sapiens, UniProt P30989)
[2] = target: 5-hydroxytryptamine receptor 2A (Homo sapiens, UniProt P28223)
[3] = target: Sodium channel protein type 5 subunit alpha (Homo sapiens, UniProt Q14524); format: functional, cell-based
D(4) dopamine receptor = target: T1, D(4) dopamine receptor (Homo sapiens, UniProt P21917)
T1 sequence (P21917 whole entry): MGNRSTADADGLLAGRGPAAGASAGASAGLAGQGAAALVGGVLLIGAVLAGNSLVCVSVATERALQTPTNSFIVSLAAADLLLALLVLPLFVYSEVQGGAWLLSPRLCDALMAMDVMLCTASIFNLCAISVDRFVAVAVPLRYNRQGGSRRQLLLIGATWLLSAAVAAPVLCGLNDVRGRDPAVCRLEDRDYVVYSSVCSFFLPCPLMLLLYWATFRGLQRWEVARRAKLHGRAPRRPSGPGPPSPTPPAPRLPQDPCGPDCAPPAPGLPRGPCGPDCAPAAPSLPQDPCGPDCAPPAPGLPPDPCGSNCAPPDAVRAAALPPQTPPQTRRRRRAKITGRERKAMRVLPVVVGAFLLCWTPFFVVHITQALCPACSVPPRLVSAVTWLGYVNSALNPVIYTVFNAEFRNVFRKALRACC

[4] = target: Voltage-dependent N-type calcium channel subunit alpha-1B (Rattus norvegicus, UniProt Q02294); format: functional
Substance-P receptor = Substance-P receptor (Homo sapiens, UniProt P25103)
Sequence of Substance-P receptor (P25103 whole entry): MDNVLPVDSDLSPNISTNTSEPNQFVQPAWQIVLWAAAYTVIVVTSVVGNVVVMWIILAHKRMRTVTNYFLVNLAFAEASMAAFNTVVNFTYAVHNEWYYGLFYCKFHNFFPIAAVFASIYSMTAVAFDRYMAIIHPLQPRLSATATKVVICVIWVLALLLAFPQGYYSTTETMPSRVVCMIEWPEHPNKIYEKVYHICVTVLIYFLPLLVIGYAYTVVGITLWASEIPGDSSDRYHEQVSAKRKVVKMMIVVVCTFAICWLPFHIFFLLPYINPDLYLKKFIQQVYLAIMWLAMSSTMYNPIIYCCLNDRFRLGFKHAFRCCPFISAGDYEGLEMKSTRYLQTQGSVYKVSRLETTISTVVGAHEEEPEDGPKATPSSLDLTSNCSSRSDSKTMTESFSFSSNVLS

[5] = target: T2, Alpha-1A adrenergic receptor (Homo sapiens, UniProt P35348)
T2 sequence (P35348 whole entry): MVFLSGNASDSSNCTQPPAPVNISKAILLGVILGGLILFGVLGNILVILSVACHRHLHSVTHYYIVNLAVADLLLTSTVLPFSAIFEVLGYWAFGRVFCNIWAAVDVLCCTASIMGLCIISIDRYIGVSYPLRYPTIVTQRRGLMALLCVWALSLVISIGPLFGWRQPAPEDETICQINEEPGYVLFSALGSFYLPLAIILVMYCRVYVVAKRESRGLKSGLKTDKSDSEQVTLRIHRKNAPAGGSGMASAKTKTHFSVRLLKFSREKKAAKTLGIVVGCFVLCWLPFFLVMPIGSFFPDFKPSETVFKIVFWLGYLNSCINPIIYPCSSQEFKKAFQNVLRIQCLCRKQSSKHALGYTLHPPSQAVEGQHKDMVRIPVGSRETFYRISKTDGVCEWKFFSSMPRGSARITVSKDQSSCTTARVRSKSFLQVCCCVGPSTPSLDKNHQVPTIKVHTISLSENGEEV

Androgen receptor = target: T3, Androgen receptor (Rattus norvegicus, UniProt P15207); format: functional
T3 sequence (P15207 whole entry): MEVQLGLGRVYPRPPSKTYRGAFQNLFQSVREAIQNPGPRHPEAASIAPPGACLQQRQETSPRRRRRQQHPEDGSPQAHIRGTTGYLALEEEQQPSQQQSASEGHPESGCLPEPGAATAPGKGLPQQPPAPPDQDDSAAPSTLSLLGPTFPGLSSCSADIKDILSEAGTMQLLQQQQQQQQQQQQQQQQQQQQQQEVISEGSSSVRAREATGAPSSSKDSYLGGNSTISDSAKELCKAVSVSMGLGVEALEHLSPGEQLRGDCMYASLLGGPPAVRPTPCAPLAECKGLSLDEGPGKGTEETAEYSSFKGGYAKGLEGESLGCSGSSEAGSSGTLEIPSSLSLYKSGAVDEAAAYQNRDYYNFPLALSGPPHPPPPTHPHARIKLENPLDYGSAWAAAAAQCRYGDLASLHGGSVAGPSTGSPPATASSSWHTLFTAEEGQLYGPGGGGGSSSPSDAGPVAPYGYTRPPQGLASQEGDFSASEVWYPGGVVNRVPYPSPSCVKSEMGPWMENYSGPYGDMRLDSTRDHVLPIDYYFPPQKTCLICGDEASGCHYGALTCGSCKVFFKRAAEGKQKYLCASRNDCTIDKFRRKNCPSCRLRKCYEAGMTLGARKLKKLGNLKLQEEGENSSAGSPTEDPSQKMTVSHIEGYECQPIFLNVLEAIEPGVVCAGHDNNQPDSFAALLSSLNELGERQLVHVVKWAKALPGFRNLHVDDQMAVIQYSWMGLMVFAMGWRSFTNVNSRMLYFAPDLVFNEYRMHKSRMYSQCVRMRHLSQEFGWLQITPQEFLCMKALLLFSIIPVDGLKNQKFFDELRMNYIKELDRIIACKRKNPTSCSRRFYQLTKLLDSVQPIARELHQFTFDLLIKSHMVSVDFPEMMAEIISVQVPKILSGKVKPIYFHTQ

[6] = target: T4, Peroxisome proliferator-activated receptor gamma (Homo sapiens, UniProt P37231); format: functional
T4 sequence (P37231 whole entry): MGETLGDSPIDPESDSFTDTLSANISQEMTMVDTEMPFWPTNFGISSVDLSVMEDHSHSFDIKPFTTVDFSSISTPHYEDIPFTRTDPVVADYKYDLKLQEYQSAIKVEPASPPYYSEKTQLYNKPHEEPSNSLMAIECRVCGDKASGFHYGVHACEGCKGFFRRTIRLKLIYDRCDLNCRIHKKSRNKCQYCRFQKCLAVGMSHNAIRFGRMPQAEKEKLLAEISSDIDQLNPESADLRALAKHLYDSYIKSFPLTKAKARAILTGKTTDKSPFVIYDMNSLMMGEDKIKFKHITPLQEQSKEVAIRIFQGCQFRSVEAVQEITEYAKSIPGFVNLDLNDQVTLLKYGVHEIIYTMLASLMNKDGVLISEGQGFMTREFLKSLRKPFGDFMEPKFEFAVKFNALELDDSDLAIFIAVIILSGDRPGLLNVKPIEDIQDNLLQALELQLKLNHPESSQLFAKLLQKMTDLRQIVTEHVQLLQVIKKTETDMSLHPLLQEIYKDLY

Histamine H1 receptor [7] = target: T5, Histamine H1 receptor (Homo sapiens, UniProt P35367); format: functional, cell-based
T5 sequence (P35367 whole entry): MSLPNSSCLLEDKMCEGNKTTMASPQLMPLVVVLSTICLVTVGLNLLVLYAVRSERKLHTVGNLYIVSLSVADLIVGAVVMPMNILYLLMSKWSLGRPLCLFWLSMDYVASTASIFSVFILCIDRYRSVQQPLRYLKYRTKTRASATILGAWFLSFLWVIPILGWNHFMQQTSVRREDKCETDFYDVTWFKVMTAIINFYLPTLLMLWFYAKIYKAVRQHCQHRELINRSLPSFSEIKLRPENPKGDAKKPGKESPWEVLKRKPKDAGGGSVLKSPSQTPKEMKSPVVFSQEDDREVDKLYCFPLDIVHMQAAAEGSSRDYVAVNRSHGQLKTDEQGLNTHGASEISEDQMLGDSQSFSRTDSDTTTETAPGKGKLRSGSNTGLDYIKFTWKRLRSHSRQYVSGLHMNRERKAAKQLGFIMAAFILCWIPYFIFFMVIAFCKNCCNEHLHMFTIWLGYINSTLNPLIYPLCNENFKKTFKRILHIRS

[8] = target: T4, Peroxisome proliferator-activated receptor gamma; format: functional; remark: listed apart in the source
Histamine H1 receptor [9] = target: T5, Histamine H1 receptor; format: functional, cell-based; remark: listed apart in the source
Further: assay procedure not described here.

Sequence of Sodium channel protein type 5 subunit alpha (Q14524 whole entry): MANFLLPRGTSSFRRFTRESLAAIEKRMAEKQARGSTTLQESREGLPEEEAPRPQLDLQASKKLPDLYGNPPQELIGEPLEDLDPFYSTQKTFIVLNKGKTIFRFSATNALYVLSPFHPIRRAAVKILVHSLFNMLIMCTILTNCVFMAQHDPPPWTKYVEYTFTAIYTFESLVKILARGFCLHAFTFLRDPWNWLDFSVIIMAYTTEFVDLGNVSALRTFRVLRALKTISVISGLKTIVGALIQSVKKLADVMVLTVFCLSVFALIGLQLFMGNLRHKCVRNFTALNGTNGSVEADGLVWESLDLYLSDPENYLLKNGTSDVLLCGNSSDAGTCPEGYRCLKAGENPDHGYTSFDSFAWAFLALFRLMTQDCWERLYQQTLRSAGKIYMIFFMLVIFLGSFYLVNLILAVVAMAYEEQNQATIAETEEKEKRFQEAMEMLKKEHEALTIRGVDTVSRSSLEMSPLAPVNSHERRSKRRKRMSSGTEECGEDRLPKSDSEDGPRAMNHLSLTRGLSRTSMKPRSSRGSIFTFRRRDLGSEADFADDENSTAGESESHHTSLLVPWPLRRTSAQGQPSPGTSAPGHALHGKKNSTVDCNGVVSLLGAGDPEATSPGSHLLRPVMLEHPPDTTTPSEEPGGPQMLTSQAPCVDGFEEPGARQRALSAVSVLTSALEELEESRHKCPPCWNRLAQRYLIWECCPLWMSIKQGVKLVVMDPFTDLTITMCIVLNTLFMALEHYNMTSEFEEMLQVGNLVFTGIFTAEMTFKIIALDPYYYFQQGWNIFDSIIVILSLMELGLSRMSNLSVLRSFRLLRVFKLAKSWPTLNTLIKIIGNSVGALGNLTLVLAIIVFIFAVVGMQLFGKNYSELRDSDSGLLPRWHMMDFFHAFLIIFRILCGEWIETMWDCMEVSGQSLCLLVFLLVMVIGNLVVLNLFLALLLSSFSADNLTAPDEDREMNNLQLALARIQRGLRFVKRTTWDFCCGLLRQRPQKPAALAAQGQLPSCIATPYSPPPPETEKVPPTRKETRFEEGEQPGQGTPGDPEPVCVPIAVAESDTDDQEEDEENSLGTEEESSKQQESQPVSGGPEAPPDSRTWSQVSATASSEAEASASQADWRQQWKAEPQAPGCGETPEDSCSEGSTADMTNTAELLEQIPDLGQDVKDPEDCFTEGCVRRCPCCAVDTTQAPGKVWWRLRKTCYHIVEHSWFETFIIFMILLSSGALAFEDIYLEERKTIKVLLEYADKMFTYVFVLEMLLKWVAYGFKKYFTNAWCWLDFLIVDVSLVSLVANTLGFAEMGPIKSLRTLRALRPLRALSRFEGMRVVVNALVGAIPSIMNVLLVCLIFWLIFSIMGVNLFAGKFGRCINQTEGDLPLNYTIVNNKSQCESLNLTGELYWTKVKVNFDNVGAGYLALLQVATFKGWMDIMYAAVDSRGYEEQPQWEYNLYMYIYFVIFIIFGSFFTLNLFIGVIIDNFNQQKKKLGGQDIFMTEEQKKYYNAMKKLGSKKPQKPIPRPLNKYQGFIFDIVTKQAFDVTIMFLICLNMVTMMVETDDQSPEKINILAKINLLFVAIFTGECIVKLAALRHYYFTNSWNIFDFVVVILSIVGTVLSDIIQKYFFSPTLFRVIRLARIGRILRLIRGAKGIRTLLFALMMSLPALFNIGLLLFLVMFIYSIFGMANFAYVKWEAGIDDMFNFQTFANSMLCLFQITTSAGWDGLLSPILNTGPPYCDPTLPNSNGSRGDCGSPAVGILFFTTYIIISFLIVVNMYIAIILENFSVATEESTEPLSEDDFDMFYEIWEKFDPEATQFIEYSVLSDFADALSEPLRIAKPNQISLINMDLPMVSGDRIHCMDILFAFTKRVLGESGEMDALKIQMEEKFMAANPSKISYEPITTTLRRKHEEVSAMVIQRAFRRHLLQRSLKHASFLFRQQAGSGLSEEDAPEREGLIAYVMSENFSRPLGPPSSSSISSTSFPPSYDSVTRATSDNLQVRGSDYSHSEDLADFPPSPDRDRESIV
Sequence of 5-hydroxytryptamine receptor 2A (P28223 whole entry): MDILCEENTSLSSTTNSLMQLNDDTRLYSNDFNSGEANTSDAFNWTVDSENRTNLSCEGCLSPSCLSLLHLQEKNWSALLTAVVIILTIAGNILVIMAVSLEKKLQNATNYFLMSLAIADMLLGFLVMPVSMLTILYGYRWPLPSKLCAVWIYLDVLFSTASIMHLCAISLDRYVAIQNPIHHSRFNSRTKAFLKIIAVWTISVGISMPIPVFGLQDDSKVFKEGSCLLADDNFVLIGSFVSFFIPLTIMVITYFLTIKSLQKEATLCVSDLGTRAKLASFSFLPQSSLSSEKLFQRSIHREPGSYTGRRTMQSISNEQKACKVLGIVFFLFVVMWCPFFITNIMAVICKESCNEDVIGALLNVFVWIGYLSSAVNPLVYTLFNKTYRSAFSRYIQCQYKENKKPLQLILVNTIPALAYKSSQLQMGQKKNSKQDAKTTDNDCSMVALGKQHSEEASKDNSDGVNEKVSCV
Sequence of Neurotensin receptor type 1 (P30989 whole entry): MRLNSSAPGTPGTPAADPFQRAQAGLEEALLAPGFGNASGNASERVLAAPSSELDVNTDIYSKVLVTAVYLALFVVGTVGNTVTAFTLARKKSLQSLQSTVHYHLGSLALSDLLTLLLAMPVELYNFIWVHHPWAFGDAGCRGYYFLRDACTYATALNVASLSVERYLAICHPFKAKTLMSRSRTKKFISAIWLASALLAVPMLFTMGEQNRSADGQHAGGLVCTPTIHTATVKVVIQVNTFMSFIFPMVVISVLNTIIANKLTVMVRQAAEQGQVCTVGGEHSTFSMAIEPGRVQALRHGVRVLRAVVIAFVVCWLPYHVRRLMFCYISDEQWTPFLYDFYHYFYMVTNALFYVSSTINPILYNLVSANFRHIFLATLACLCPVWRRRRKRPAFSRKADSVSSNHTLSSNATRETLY

**Q.** Which AC50 [1] does the source give for `OCCN(CCO)c1nc(N2CCCCC2)c2nc(N(CCO)CCO)nc(N3CCCCC3)c2n1` [DIPYRIDAMOLE] here?
**A.** > 30 µM

**Q.** What does the source list for `Cc1cnc(Nc2ccc(OCCN3CCCC3)cc2)nc1Nc1cccc(S(=O)(=O)NC(C)(C)C)c1` [FEDRATINIB]?
**A.** AC50 [2]: 3.12 µM; AC50 [3]: 7.7 µM

**Q.** Which AC50 (D(4) dopamine receptor) does the source give for `CCOC(=O)C1=C(C)NC(C)=C(C(=O)OC)C1c1cccc(Cl)c1Cl` (configuration not stated) [FELODIPINE] here?
**A.** > 10 µM

**Q.** What about the AC50 [4] of the same compound?
**A.** > 10 µM

**Q.** And the AC50 [1]?
**A.** > 30 µM

**Q.** What about the AC50 (Substance-P receptor) of the same compound?
**A.** > 10 µM

**Q.** What about the AC50 [5] of the same compound?
**A.** > 10 µM

**Q.** With `CC(=O)OCC(=O)[C@@]1(O)CC[C@H]2[C@@H]3CCC4=CC(=O)CC[C@]4(C)[C@@]3(F)[C@@H](O)C[C@@]21C` [FLUDROCORTISONE ACETATE] as the compound, how does the AC50 (Androgen receptor) read?
**A.** > 30 µM

**Q.** Which AC50 (Androgen receptor) does the source give for `Cc1ccc(S(=O)(=O)NC(=O)N[C@H]2[C@H]3CC[C@@](C)([C@H]2O)C3(C)C)cc1` [GLIBORNURIDE] here?
**A.** > 30 µM

**Q.** `CN1C2CCCC1CC(NC(=O)c1nn(C)c3ccccc13)C2` (configuration not stated) [GRANISETRON] was tested. Which AC50 (D(4) dopamine receptor) did it give?
**A.** > 10 µM

**Q.** And the AC50 [3]?
**A.** > 30 µM

**Q.** What about the AC50 [4] of the same compound?
**A.** > 10 µM

**Q.** What about the AC50 [1] of the same compound?
**A.** > 30 µM

**Q.** And the AC50 (Substance-P receptor)?
**A.** > 10 µM

**Q.** What about the AC50 [5] of the same compound?
**A.** > 10 µM

**Q.** With `CC1Cc2ccccc2N1NC(=O)c1ccc(Cl)c(S(N)(=O)=O)c1` (configuration not stated) [INDAPAMIDE] as the compound, how does the AC50 [4] read?
**A.** > 10 µM

**Q.** Which AC50 [6] does the source give for `CCC(=O)O[C@H](CC(=O)O)C[N+](C)(C)C` [LEVOCARNITINE PROPIONATE] here?
**A.** > 30 µM

**Q.** And the AC50 (Androgen receptor)?
**A.** > 30 µM

**Q.** And the AC50 (Histamine H1 receptor [7])?
**A.** > 30 µM

**Q.** What about the AC50 [8] of the same compound?
**A.** > 30 µM

**Q.** What about the AC50 (Histamine H1 receptor [9]) of the same compound?
**A.** > 30 µM

**Q.** With `CCN(CC)CC(=O)Nc1c(C)cccc1C` [LIDOCAINE] as the compound, how does the AC50 [1] read?
**A.** > 30 µM

**Q.** What about the AC50 (Substance-P receptor) of the same compound?
**A.** > 10 µM

**Q.** Which AC50 [6] does the source give for `O=C(O)c1nn(Cc2ccc(Cl)cc2Cl)c2ccccc12` [LONIDAMINE] here?
**A.** > 30 µM

**Q.** And the AC50 (Androgen receptor)?
**A.** > 30 µM

**Q.** And the AC50 (Histamine H1 receptor [7])?
**A.** > 30 µM

**Q.** And the AC50 [8]?
**A.** > 30 µM

**Q.** What about the AC50 (Histamine H1 receptor [9]) of the same compound?
**A.** > 30 µM

**Q.** Which AC50 [6] does the source give for `COC(=O)c1ccc2c(c1)NC(=O)/C2=C(\Nc1ccc(N(C)C(=O)CN2CCN(C)CC2)cc1)c1ccccc1` [NINTEDANIB] here?
**A.** > 30 µM

**Q.** And the AC50 [3]?
**A.** 13 µM

**Q.** What about the AC50 (Androgen receptor) of the same compound?
**A.** > 30 µM

**Q.** What about the AC50 [8] of the same compound?
**A.** 4.8 µM

**Q.** `CN1CCCN=C1/C=C/c1cccc(O)c1` [OXANTEL] was tested. Which AC50 (Androgen receptor) did it give?
**A.** 26 µM

**Q.** Which results are given for `CC1NCCOC1c1ccccc1` (configuration not stated) [PHENMETRAZINE]?
**A.** AC50 [2]: > 10 µM; AC50 (Histamine H1 receptor [7]): > 30 µM; AC50 [4]: > 10 µM; AC50 [1]: > 30 µM; AC50 (Histamine H1 receptor [9]): > 30 µM

**Q.** Which results are given for `CC(C)(N)Cc1ccccc1` [PHENTERMINE]?
**A.** AC50 [2]: > 10 µM; AC50 [4]: > 10 µM; AC50 [1]: > 30 µM

**Q.** Which AC50 [6] does the source give for `CS(=O)(=O)NC(=O)CCC/C=C\C[C@H]1C(=O)C[C@@H](O)[C@@H]1/C=C/[C@@H](O)COc1ccccc1` [SULPROSTONE] here?
**A.** > 30 µM

**Q.** What about the AC50 (Histamine H1 receptor [7]) of the same compound?
**A.** > 30 µM

**Q.** And the AC50 [8]?
**A.** > 30 µM

**Q.** What about the AC50 (Histamine H1 receptor [9]) of the same compound?
**A.** > 30 µM

**Q.** How did the AC50 (Androgen receptor) turn out when `CCCCOC(=O)C(=O)Nc1cccc(-c2nnn[nH]2)c1` [TAZANOLAST] was run?
**A.** > 30 µM

**Q.** `CCCCC[C@H](O)CC[C@@H]1[C@H]2Cc3cccc(OCC(=O)O)c3C[C@H]2C[C@H]1O` [TREPROSTINIL] was tested. Which AC50 [6] did it give?
**A.** > 30 µM

**Q.** And the AC50 (Androgen receptor)?
**A.** > 30 µM

**Q.** And the AC50 [8]?
**A.** > 30 µM

**Q.** How did the AC50 (Androgen receptor) turn out when `CN(C)CCOCC(=O)NC12CC3CC(CC(C3)C1)C2` [TROMANTADINE] was run?
**A.** > 30 µM

**Q.** With `CCCCCCCC(=O)CC[C@@H]1[C@@H](C/C=C\CCCC(=O)O)[C@@H](O)C[C@H]1O` [UNOPROSTONE] as the compound, how does the AC50 [6] read?
**A.** > 30 µM

**Q.** What about the AC50 [3] of the same compound?
**A.** > 50 µM

**Q.** And the AC50 (Androgen receptor)?
**A.** > 30 µM

**Q.** And the AC50 (Histamine H1 receptor [7])?
**A.** > 30 µM

**Q.** And the AC50 [8]?
**A.** > 30 µM

**Q.** What about the AC50 (Histamine H1 receptor [9]) of the same compound?
**A.** > 30 µM
